Data from ChEMBL document CHEMBL5360530, “Structure activity relationship (SAR) and anticancer activity of pyrrolidine derivatives: Recent developments and future prospects (A review)” (Eur J Med Chem, 2023).

Assays:
MCF7 [1] = test: Anticancer activity against human MCF7 cells assessed as cell growth inhibition at 100 uM by MTT assay relative to control; type: functional
A549 [2] = test: Anticancer activity against human A549 cells assessed as cell growth inhibition at 100 uM by MTT assay relative to control; type: functional
HepG2 [3] = test: Anticancer activity against human HepG2 cells assessed as cell growth inhibition at 100 uM by MTT assay relative to control; type: functional
A-431 = test: Anticancer activity against human A-431 cells assessed as cell growth inhibition at 100 uM by MTT assay relative to control; type: functional
MCF7 [4] = test: Anticancer activity against human MCF7 cells assessed as cell growth inhibition measured after 48 hrs by MTT assay; type: functional, cell-based; conditions: MCF7, 48 h
A549 [5] = test: Anticancer activity against human A549 cells assessed as cell growth inhibition measured after 48 hrs by MTT assay; type: functional, cell-based; conditions: A549, 48 h
FaDu = test: Anticancer activity against human FaDu cells assessed as cell growth inhibition measured after 48 hrs; type: functional, cell-based; conditions: Homo sapiens, FaDu, 48 h
HCT-116 = test: Anticancer activity against human HCT-116 cells assessed as cell growth inhibition measured after 48 hrs by MTT assay; type: functional, cell-based; conditions: HCT-116, 48 h
HepG2 [6] = test: Anticancer activity against human HepG2 cells assessed as cell growth inhibition measured after 48 hrs by MTT assay; type: functional, cell-based; conditions: HepG2, 48 h
PC-3 = test: Anticancer activity against human PC-3 cells assessed as cell growth inhibition measured after 48 hrs by MTT assay; type: functional, cell-based; conditions: PC-3, 48 h

Row | SMILES | inhibition at 100 µM (MCF7 [1]) | inhibition at 100 µM (A549 [2]) | inhibition at 100 µM (HepG2 [3]) | inhibition at 100 µM (A-431) | further results
1 | CCCCCCCC/C=C\CC(=O)N1CCC[C@H]1COP(=O)([O-])OCC[N+](C)(C)C | 91% | 4.7% | 10.1% | 0.3% | –
2 | CCCCCCCCCCCCCCCCCC/C=C\CCCCCCCC(=O)N1CCC[C@H]1OP(=O)([O-])OCC[N+](C)(C)C | 22.6% | 4.7% | 10.1% | 0.3% | –
3 | O=C(CN1CCCC1)Nc1cc2ccccc2oc1=O | – | – | – | – | IC50 (MCF7 [4]): 4.8 µM; IC50 (A549 [5]): 1.8 µM
4 | O=C1Nc2ccccc2C12N[C@H](Cc1ccccc1)[C@@H](c1ccccc1Br)[C@@]21CN(/C=C/c2ccccc2)C/C(=C\c2ccccc2Br)C1=O (some centres not stated) | – | – | – | – | IC50 (FaDu): ≥ 19 µM
5 | O=C1Nc2ccccc2C12N[C@H](Cc1ccccc1)[C@@H](c1ccccc1Cl)[C@@]21CN(/C=C/c2ccccc2)C/C(=C\c2ccccc2Cl)C1=O (some centres not stated) | – | – | – | – | IC50 (FaDu): ≥ 19 µM
6 | CCCCCC/C=C\CCCCCCCC(=O)N1CC[C@@H](OP(=O)([O-])OCC[N+](C)(C)C)C1 | 22.6% | 4.7% | 10.1% | 0.3% | –
7 | Cc1ccc(/C=C2\CN(/C=C/c3ccccc3)C[C@]3(C2=O)[C@H](c2ccc(C)cc2)[C@@H](Cc2ccccc2)NC32C(=O)Nc3ccccc32)cc1 (some centres not stated) | – | – | – | – | IC50 (FaDu): ≥ 19 µM
8 | O=C(N[C@H]1C[C@@H](C(=O)NO)N(S(=O)(=O)c2ccc(Oc3ccccc3)cc2)C1)c1cccnc1 | – | – | – | – | IC50 (A549 [5]): 5 µM
9 | COc1ccc(/C=C/C(=O)[C@H]2[C@H](c3ccc(OC)cc3)[C@H]3CSCN3[C@]23C(=O)Nc2ccccc23)cc1 | – | – | – | – | IC50 (HCT-116): 1.57 µM; IC50 (HepG2 [6]): ≥ 1.5 µM; IC50 (PC-3): ≥ 0.8 µM
10 | COc1ccc(/C=C2\CN(/C=C/c3ccccc3)C[C@]3(C2=O)[C@H](c2ccc(OC)cc2)[C@@H](Cc2ccccc2)NC32C(=O)Nc3ccccc32)cc1 (some centres not stated) | – | – | – | – | IC50 (FaDu): ≥ 19 µM
11 | Cc1ccc(/C=C/C(=O)[C@H]2[C@H](c3ccc(C)cc3)[C@H]3CSCN3[C@]23C(=O)Nc2ccccc23)cc1 | – | – | – | – | IC50 (HCT-116): 1.57 µM; IC50 (HepG2 [6]): ≥ 1.5 µM; IC50 (PC-3): ≥ 0.8 µM
12 | O=C(Nc1cc2ccccc2oc1=O)[C@@H]1CCCN1S(=O)(=O)c1ccc(Cl)cc1 | – | – | – | – | IC50 (MCF7 [4]): 4.39 µM; IC50 (A549 [5]): 3.81 µM
13 | CCCCCCCC/C=C\CC(=O)N1CCC[C@@H]1COP(=O)([O-])OCC[N+](C)(C)C | 93% | 4.7% | 10.1% | 0.3% | –
14 | O=C(Nc1cc2ccccc2oc1=O)[C@@H]1CCCN1S(=O)(=O)c1ccccc1 | – | – | – | – | IC50 (MCF7 [4]): 9.34 µM; IC50 (A549 [5]): 7.39 µM
15 | Cc1ccccc1/C=C1\CN(/C=C/c2ccccc2)C[C@]2(C1=O)[C@H](c1ccccc1C)[C@@H](Cc1ccccc1)NC21C(=O)Nc2ccccc21 (some centres not stated) | – | – | – | – | IC50 (FaDu): 23.5 µM
16 | CCCCCCCC/C=C\CC(=O)N1CC[C@@H](COP(=O)([O-])OCC[N+](C)(C)C)C1 | 92.9% | 58.7% | 72.8% | 67.3% | –
17 | CCCCCCCCCCCCCCCC(=O)N1CC[C@@H](OP(=O)([O-])OCC[N+](C)(C)C)C1 | 22.6% | 4.7% | 10.1% | 0.3% | –
18 | O=C1Nc2ccccc2C12N[C@H](Cc1ccccc1)[C@@H](c1ccc(Cl)cc1Cl)[C@@]21CN(/C=C/c2ccccc2)C/C(=C\c2ccc(Cl)cc2Cl)C1=O (some centres not stated) | – | – | – | – | IC50 (FaDu): 22 µM
19 | Cc1ccc([C@@H]2[C@H]3CSCN3[C@]3(C(=O)Nc4ccccc43)[C@H]2C(=O)/C=C/c2ccccc2)cc1 | – | – | – | – | IC50 (HCT-116): 1.57 µM; IC50 (HepG2 [6]): ≥ 1.5 µM; IC50 (PC-3): ≥ 0.8 µM
20 | CCCCCCCCCCCCCCCC(=O)N1CC[C@H](COP(=O)([O-])OCC[N+](C)(C)C)C1 | 74.6% | 71.6% | 57.3% | 74.2% | –
21 | COc1cccc(/C=C2\CN(/C=C/c3ccccc3)C[C@]3(C2=O)[C@H](c2cccc(OC)c2)[C@@H](Cc2ccccc2)NC32C(=O)Nc3ccccc32)c1 (some centres not stated) | – | – | – | – | IC50 (FaDu): ≥ 19 µM
22 | CCCCCCCCCCCCCCCCC/C=C\CCCCCCCC(=O)N1CC[C@H](OP(=O)([O-])OCC[N+](C)(C)C)C1 | 22.6% | 4.7% | 10.1% | 0.3% | –
23 | O=C(/C=C/c1ccc(F)cc1)[C@H]1[C@H](c2ccc(F)cc2)[C@H]2CSCN2[C@]12C(=O)Nc1ccccc12 | – | – | – | – | IC50 (HCT-116): 1.57 µM; IC50 (HepG2 [6]): ≥ 1.5 µM; IC50 (PC-3): ≥ 0.8 µM
24 | O=C(/C=C/c1cccc(Br)c1)[C@H]1[C@H](c2cccc(Br)c2)[C@H]2CSCN2[C@]12C(=O)Nc1ccccc12 | – | – | – | – | IC50 (HCT-116): 1.57 µM; IC50 (HepG2 [6]): ≥ 1.5 µM; IC50 (PC-3): ≥ 0.8 µM
25 | CCCCCC/C=C\CCCCCCCC(=O)N1CCC[C@@H]1OP(=O)([O-])OCC[N+](C)(C)C | 22.6% | 4.7% | 10.1% | 0.3% | –
26 | O=C(N[C@H]1C[C@@H](C(=O)NO)N(S(=O)(=O)c2ccc(Oc3ccccc3)cc2)C1)c1cc(Br)cnc1Cl | – | – | – | – | IC50 (A549 [5]): 5 µM
27 | O=C1Nc2ccccc2C12N[C@H](Cc1ccccc1)[C@@H](c1ccc(Cl)cc1)[C@@]21CN(/C=C/c2ccccc2)C/C(=C\c2ccc(Cl)cc2)C1=O (some centres not stated) | – | – | – | – | IC50 (FaDu): ≥ 19 µM
